Each block holds one compound with its values, some of them ahead of it.
How the values were obtained:
[1] = pKa of the conjugate acid of the leaving group; no measurement described; cited from earlier work
[2] = NMR CO release experiments for formyl compounds; format: physicochemical; settings: deuterated PBS or 20% DMSO-d6 in deuterated PBS; determined indirectly from ratio of formic acid formed
Method: Compounds 1-4 were tested for their CO release by NMR. Each compound was placed in deuterated PBS or 20% DMSO-d6 in deuterated PBS. CO release yield was indirectly determined by calculating the ratio of formic acid formed as a by-product of the competing hydrolysis reaction.

[3] = COP-1 fluorescent probe evaluation of CO release; format: physicochemical
Method: COP-1, a CO probe that is commonly employed in the literature to detect CO was used to evaluate the ability of different oxalyl-based compounds to release CO under aqueous solution at room temperature. Chloride was replaced with various leaving groups having different pKa values to survey the effect of pKa on CO release.
To a solution of the CO probe COP-1 (0.5 μM) in 3% DMSO in PBS, a solution of 1,2-bis(1,1-dioxido-3-oxobenzo[d]isothiazol-2(3H)-yl)ethane-1,2-dione in DMSO was added to form a 100 μM final solution concentration. The resulting mixture was incubated at 37° C., and the fluorescence emission intensity was recorded at different time points from […] with an excitation wavelength of 475 nm.

deoxy-myoglobin = test: Two-compartment CO-myoglobin (Mb-CO) assay; format: physicochemical; settings: DMSO/PBS, 37° C., 25 minutes
[4] = RP-HPLC stability study (solid and acetonitrile solution); format: physicochemical; settings: exposed to ambient light and temperature
Excerpt: These prodrugs are also stable as a solution of acetonitrile stored at room temperature for at least seven days.

[5] = CO release profile of the activated charcoal formulation (GC headspace); format: physicochemical; settings: 100 mg method A formulation, 3 mL PBS, 37° C.
Method: Activated charcoal comprising Compound 5 (100 mg) that was formulated by method A was put into a GC-headspace vial. PBS (3 mL) preheated to 37° C. was added and the vial was sealed and incubated at 37° C. At different time points, 250 μL of the headspace gas was withdrawn and injected to a gas chromatograph (Agilent 7820) equipped with a RESTEK packed molecular sieve column and a TCD detector. The CO release kinetic and yield were plotted (FIG. 23) based on the CO peak area and calibration curve.

[6] = LC-MS determination of oxalic acid (CO vs non-CO producing pathways); format: physicochemical; settings: from a 200-μM sample
Method: LC-MS Studies: CO Production Vs Non-CO Producing Pathways The LCMS analysis was performed on an Agilent 1200 HPLC and 3200 API triple quadrupole mass spectrometer with electrospray ionization source in a negative mode. Selected ion mode was used for the detection of ions at m/z 182 for saccharin and m/z 89 for oxalic acid. A 5 uL of sample solution (compound 5) was directly delivered to the mass spectrometer ionization source with an Agilent autosampler and HPLC by mixing with 1% ACN in water mobile phase at 200 uL/min flow rate. No column was used. Three minutes were recorded and the peak area was integrated and the peak are ratio of PA (Oxalic acid)/PA(Saccharin) vs Concentration ratio (C(Saccharine)/C(Oxalic acid) was plotted as standard curve. The linear regression equation was generated for the calculation of the ratio of unknowns.

[7] = test system: LPS induced TNF-α production in RAW264.7 cells; test: Anti-inflammatory assay: TNF-α ELISA in LPS-stimulated RAW264.7 cell culture; format: cell-based; settings: total 5 hour pretreatment (Compound 5 medium changed every 1 hour 5 times; Compound 7 single addition)
Method: The effect of the compounds of the present invention on CO-associated anti-inflammation activity was studied. Pro-inflammatory cytokine TNF-α in RAW264.7 cell culture upon stimulation by lipid polysaccharide (LPS) from E. coli was tested with ELSA assay. […] Due to the fast release kinetics of Compound 5, a repeated dosage protocol was used. Indicated concentration of Compound 5 was added to the culture medium right before addition to the cell and the fresh-made drug loaded culture medium was changed every 1 hour 5 times. Compound 7 has a longer half-life and therefore a single addition of the drug can fulfill the anti-inflammation effect. A Total 5 hour pretreatment was used throughout the experiments and the reported CO prodrug shown below (Ji, X., et al. Angew Chem Int Ed Engl 2016, 55 (51), 15846-15851) was used as the positive control: […]

[8] = Quantitative CO analysis by GC with thermal conductivity detector; format: physicochemical; settings: 37° C.; for CO release yield: 4 to 1 acetonitrile: water, 1 h (FIG. 10); for CO yield, effect of pH: pH 1, pH 3 and pH 7.4 buffers in ACN:H2O (4:1), 1 hour (FIG. 11, 12)
Method: An Agilent […] GC System equipped with a thermal conductivity detector was used to detect and quantify CO release yield of the CO prodrugs. Using a gas tight syringe, specific volumes of the headspace of 20-mL headspace vials were sampled and transferred to the injector port maintained at 125° C. Helium was used as the carrier gas with a flow rate of 30 mL/min. Gaseous components of the headspace were separated by passing through a packed column with 60/80 Carboxen-1000 matrix support, […] (4.6 m)×1⁄8 in.×2.1 mm (Supelco). The column was heated 35° C. for 5 min then 225° C. at 20° C./min while the detector was held at 125° C.

HeLa cells = test: CCK-8 cytotoxicity assay; format: cell-based; settings: 0-100 μM, 1% DMSO in DMEM, 24 hours
Method: For the CCK-8 assay, HeLa cells were cultured in DMEM (Dulbecco's Modified Eagle's Medium) supplements with 10% fetal bovine serum (MidSci; SO1520HI) and 1% penicillin-streptomycin (Sigma-Aldrich; P4333) at 37° C. with 5% C02. Fresh medium was replenished every other day. The cells were treated with the compounds (0-100 μM) using 1% DMSO in DMEM for 24 hours.

[9] = HPLC kinetics of decomposition; format: physicochemical; settings: 40% acetonitrile in PBS; 60% PBS (40% acetonitrile), 37° C.
Method: Compound 5 was tested for its rate of decomposition under physiological conditions. The followed samples were injected into the HPLC instrument i) saccharin (200 μM) dissolved in 40% acetonitrile in PBS; and b) incubated solution of the CO-releasing molecule Compound 5 dissolved in 40% acetonitrile in PBS at 37° C. at different time points. A 200 μL aliquot of incubated sample was placed inside a 0.5 mL vial followed by dilution with 200 μL of acetonitrile. The study was performed using the Shimadzu Prominence UFLC with a reversed-phase analytical column (Waters C18 3.5 μM, 4.6×100 mm) at 25° C. The flow rate was set at 1 mL/min. Gradient elution using acetonitrile and deionized water with 0.05% TFA was used to elute out the components of the sample. Elution conditions: 0-7 min 50% to 70% acetonitrile; injection volume 10 μL; detection wavelength of 254 and 280 nm. Experiments were done in triplicate.

[10] = Saturation adsorption assay on activated charcoal; format: physicochemical; settings: in 10 mg activated charcoal, ACN, 25° C.
Method: A saturation adsorption assay was used to determine the adsorption capacity of the Compound 5 on activated charcoal. Compound 5 was dissolved in anhydrous ACN to form calibration samples with a concentration range from 0.019 to 0.3 mg/ml. The absorbance at 280 nm was measured with a UV-Vis spectrometer and plotted against the concentration to give the calibration curve (FIG. 21).
At room temperature (25° C.), 1-6 mg Compound 5 was mixed with 10 mg of activated charcoal and then 0.5 ml ACN was added. The mixture was shaken for 1 h followed by centrifuging at 12000×g for 5 min and the supernatant was diluted by 50 folds with ACN and measured with UV/Vis spectrometer at 280 nm to get the Compound 5 concentration in the supernatant. Adsorbed mass of Compound 5 was calculated by Formula I: Adsorbed mass=(Initial mass)−0.5*(supernatant concentration) (Formula I) Adsorbed mass=Y0+(Plateau-Y0)*(1−e^kX) (Formula II)

Compound: O=C(Oc1c(Cl)cc(Cl)cc1Cl)C(=O)Oc1c(Cl)cc(Cl)cc1Cl
- pKa [1]: 6.23

Compound: O=C(C(=O)N1C(=O)c2ccccc2C1=O)N1C(=O)c2ccccc2C1=O
- pKa [1]: 8.3

Compound: O=C(C(=O)n1ccnc1)n1ccnc1
- pKa [1]: 14.5

Compound: Cc1nn(C=O)c(=S)s1 [Compound 2, 5-Methyl-2-thioxo-1,3,4-thiadiazole-3(2H)-carbaldehyde]
- increase in fluorescence with the COP-1 probe ([3]; after 10 minutes of incubation (FIG. 4)): 2.3 fold
- CO Release Yield (%) [2]: 33%
- formation of CO-myoglobin (UV-Vis spectral signature) (deoxy-myoglobin): showed the characteristic spectral signature for the formation of CO-myoglobin

Compound: O=Cn1ccccc1=O [Compound 3, 2-Oxopyridine-1(2H)-carbaldehyde]
- CO Release Yield (%) [2]: 20%

Compound: C[N+](C)=c1ccn(C=O)cc1.[Br-] [Compound 4, N-(1-Formylpyridin-4(1H)-ylidene)-N-methylmethanaminium Bromide]
- CO Release Yield (%) [2]: 34%

Compound: O=C(C(=O)N1C(=O)c2ccccc2S1(=O)=O)N1C(=O)c2ccccc2S1(=O)=O [drawing 150]
- pKa [1]: 1.6

Second part, led by results:

- CO Release Yield (%) [2]: 20%
Compound: O=CN1C(=O)c2ccccc2S1(=O)=O [Compound 1, 3-Oxobenzo[d]isothiazole-2(3H)-carbaldehyde 1,1-dioxide]

- increase in fluorescence intensity with the COP-1 probe ([3]; after 3 h (FIG. 5), 100 μM compound, 0.5 μM COP-1, 3% DMSO in PBS, 37° C.): 4 fold
- stable as a solid [4]: at least 24 days
- total CO release yield [5]: 81%
- CO production estimated from oxalic acid [6]: about 75%
- oxalic acid produced [6]: 47 µM
- CO release yield [8]: 76%±6
- CO yield, effect of pH [8]: 60% to 30%
- half-life [9]: 1.28 ± 0.03 min
- maximum adsorption amount on activated charcoal (plateau) [10]: 1.73 mg
Compound: O=C(C(=O)N1C(=O)c2ccccc2S1(=O)=O)N1C(=O)c2ccccc2S1(=O)=O [Compound 5, 1,2-Bis(1,1-dioxido-3-oxobenzo[d]isothiazol-2(3H)-yl)ethane-1,2-dione]
- LPS induced TNF-α production [7]: inhibit LPS induced TNF-α production in a dose-dependent manner
- toxicity to HeLa cells (cell survival) (HeLa cells): no toxicity to HeLa cells up to a 100 μM concentration
- formation of CO-myoglobin (UV-Vis spectral signature) (deoxy-myoglobin): showed the characteristic spectral signature for the formation of CO-myoglobin

- CO release yield [8]: 92%±3
- CO yield, effect of pH [8]: around 90%
- half-life [9]: 9.5 ± 0.1 min
Compound: CC1=CC(=O)N(C(=O)C(=O)N2C(=O)C=C(C)OS2(=O)=O)S(=O)(=O)O1 [Compound 7, 1,2-Bis(6-methyl-2,2-dioxido-4-oxo-1,2,3-oxathiazin-3(4H)-yl)ethane-1,2-dione]
- LPS induced TNF-α production [7]: inhibit LPS induced TNF-α production in a dose-dependent manner
- formation of CO-myoglobin (UV-Vis spectral signature) (deoxy-myoglobin): showed the characteristic spectral signature for the formation of CO-myoglobin

- CO release yield [8]: No CO nor CO2 were detected
- CO2 yield ([8]; ACN:H2O (4:1), 1 hour (FIG. 10)): No CO nor CO2 were detected
Compound: CC(C)(C)OC(=O)C(=O)N1C(=O)c2ccccc2S1(=O)=O [Compound 8, tert-Butyl 2-(1,1-Dioxido-3-oxobenzo[d]isothiazol-2(3H)-yl)-2-oxoacetate]

- CO release yield [8]: no CO was detected
Compound: CS(=O)(=O)N(C(=O)C(=O)N(C(=O)c1ccccc1)S(C)(=O)=O)C(=O)c1ccccc1 [Compound 9, N^1,N^2-Dibenzoyl-N^1,N^2-bis(methylsulfonyl)oxalamide]

— patent publication US12071415B2, “Carbon monoxide prodrugs for the treatment of medical disorders” (Georgia State University Research Foundation, Inc., priority 2018, dated 2024)
